From BindingDB's records for doi:10.1021/bi990204w (National Institute of Diabetes and Digestive and Kidney …, 1999)
“And” between values parts separate entries of the source, which are not always exact repeats. Identical values can stand only once. Where a SMILES comes first, the peptide text is derived from it. [ ]: non-standard residue; d: D form. The star is where a group is joined. X1 = CC(C)C[C@@H](CN[C@@H](CC(C)C)C(N)=O)N*; pGlu = O=C1CC[C@@H](C(=O)O)N1; Nle = CCCC[C@H](N)C(=O)O; βAla = NCCC(=O)O

Tests used:
[1] = target: T1, Bombesin receptor subtype-3 (Homo sapiens, UniProt P32247)
T1 sequence (P32247 whole entry): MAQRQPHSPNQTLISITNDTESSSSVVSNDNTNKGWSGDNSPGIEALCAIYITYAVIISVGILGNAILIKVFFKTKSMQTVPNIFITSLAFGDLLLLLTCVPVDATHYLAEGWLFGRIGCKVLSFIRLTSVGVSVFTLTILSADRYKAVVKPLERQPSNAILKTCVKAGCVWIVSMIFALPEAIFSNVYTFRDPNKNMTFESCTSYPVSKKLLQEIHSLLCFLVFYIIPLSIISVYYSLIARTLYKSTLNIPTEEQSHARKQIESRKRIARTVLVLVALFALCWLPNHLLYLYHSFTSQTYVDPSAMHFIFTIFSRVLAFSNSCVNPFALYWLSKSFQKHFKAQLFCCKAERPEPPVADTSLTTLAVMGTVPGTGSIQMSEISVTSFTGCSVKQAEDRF

[2] = target: Gastrin-releasing peptide receptor (Mus musculus, UniProt P21729)
[3] = target: Gastrin-releasing peptide receptor (Rattus norvegicus, UniProt P52500)
[4] = target: T2, Neuromedin-B receptor (Rattus norvegicus, UniProt P24053)
T2 sequence (P24053 whole entry): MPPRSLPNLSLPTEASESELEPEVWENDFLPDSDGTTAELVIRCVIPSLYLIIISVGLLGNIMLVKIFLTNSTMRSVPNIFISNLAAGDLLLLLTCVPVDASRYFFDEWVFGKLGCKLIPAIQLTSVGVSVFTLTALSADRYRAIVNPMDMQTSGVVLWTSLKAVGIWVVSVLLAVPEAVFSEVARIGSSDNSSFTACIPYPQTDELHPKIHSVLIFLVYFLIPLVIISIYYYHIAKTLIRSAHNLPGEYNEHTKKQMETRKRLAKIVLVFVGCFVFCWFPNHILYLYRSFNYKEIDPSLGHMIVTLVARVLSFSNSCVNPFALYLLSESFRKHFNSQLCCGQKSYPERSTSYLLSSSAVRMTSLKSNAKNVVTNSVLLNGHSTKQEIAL

Gastrin-releasing peptide receptor (Mus musculus, UniProt P21729), sequence (P21729 whole entry): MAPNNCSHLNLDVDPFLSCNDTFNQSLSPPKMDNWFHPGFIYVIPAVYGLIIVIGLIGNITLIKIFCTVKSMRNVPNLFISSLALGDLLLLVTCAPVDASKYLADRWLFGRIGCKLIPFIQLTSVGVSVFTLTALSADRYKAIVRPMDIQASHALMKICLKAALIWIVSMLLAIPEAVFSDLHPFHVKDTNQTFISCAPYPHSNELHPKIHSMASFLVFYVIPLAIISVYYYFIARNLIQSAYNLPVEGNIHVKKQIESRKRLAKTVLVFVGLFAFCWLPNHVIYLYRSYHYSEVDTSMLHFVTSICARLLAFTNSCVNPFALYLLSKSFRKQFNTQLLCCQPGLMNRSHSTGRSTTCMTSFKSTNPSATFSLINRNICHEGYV
Gastrin-releasing peptide receptor (Rattus norvegicus, UniProt P52500), sequence (P52500 whole entry N28S): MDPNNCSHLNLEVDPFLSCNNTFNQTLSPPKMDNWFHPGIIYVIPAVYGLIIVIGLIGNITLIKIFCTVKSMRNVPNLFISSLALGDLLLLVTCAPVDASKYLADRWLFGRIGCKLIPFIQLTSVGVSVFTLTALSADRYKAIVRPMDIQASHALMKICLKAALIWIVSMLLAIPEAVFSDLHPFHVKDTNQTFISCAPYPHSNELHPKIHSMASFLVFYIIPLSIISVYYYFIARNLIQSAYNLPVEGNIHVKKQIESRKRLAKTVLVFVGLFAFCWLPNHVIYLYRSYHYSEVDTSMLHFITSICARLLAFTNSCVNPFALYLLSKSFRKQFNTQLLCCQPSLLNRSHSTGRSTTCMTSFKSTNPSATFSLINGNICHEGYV

| Structure (SMILES) | Ki [1] | Ki [2] | Ki [3] | Ki [4] |
| --- | --- | --- | --- | --- |
| CC(C)C[C@@H](CN[C@@H](CC(C)C)C(N)=O)NC(=O)[C@H](Cc1cnc[nH]1)NC(=O)CNC(=O)[C@@H](NC(=O)[C@H](C)NC(=O)[C@H](Cc1c[nH]c2ccccc12)NC(=O)[C@H](CCC(N)=O)NC(=O)[C@H](CC(N)=O)NC(=O)CNC(=O)[C@H](CC(C)C)NC(=O)[C@H](CCCN=C(N)N)NC(=O)[C@H](CCC(N)=O)NC(=O)[C@@H]1CCC(=O)N1)C(C)C [Leu13,Psi(CH2NH),Leu14-BN] ([pGlu]QRLGNQWAVGH-X1) | > 10000 nM |  | 430 nM | > 10000 nM |
| CSCC[C@H](NC(=O)[C@H](Cc1ccccc1)NC(=O)[C@H](Cc1cnc[nH]1)NC(=O)CNC(=O)[C@@H](NC(=O)[C@H](C)NC(=O)[C@H](Cc1c[nH]c2ccccc12)NC(=O)[C@H](CCC(N)=O)NC(=O)[C@H](CC(N)=O)NC(=O)CNC(=O)[C@H](CC(C)C)NC(=O)[C@H](CCCN=C(N)N)NC(=O)[C@H](CCC(N)=O)NC(=O)[C@@H]1CCC(=O)N1)C(C)C)C(N)=O [Bombesin,Phe13] | 6600 nM |  | 0.77 nM | 6 nM |
| CSCC[C@H](NC(=O)[C@H](CC(C)C)NC(=O)[C@H](CO)NC(=O)CNC(=O)[C@@H](NC(=O)[C@H](C)NC(=O)[C@H](Cc1c[nH]c2ccccc12)NC(=O)[C@H](CC(C)C)NC(=O)[C@@H]1CCC(=O)N1)C(C)C)C(N)=O [Leu8-phyllolitorin] ([pGlu]LWAVGSLM-NH2) | 5400 nM |  | 420 nM | > 10000 nM |
| CSCCC(NC(=O)C(CC(C)C)NC(=O)C(Cc1cnc[nH]1)NC(=O)CNC(=O)C(NC(=O)C(C)NC(=O)C(Cc1c[nH]c2ccccc12)NC(=O)C(Cc1cnc[nH]1)NC(=O)C(CC(N)=O)NC(=O)CN)C(C)C)C(N)=O (stereo not given) [NSC_5486814] | > 10000 nM |  | 20 nM | 140 nM |

Next, values leading:

| Ki [1] | Ki [2] | Ki [3] | Ki [4] | Structure (SMILES) |
| --- | --- | --- | --- | --- |
| 8.9 nM | 0.26 nM and 0.24 nM and 0.19 nM and 0.11 nM | 0.99 nM | 0.36 nM | CCCC[C@H](NC(=O)[C@H](Cc1ccccc1)NC(=O)[C@H](Cc1c[nH]cn1)NC(=O)CCNC(=O)[C@@H](NC(=O)[C@H](C)NC(=O)[C@H](Cc1c[nH]c2ccccc12)NC(=O)[C@H](CCC(N)=O)NC(=O)[C@H](N)Cc1ccccc1)C(C)C)C(N)=O [DPhe6,BetaAla11,Phe13,Nle14-Bn(6-14)] (H-[dF]QWAV[βAla]HF[Nle]-NH2) |
| > 10000 nM |  | 3200 nM | > 10000 nM | CC(C)C[C@H](NC(=O)[C@H](Cc1cnc[nH]1)NC(=O)CNC(=O)[C@@H](NC(=O)[C@H](C)NC(=O)[C@H](Cc1c[nH]c2ccccc12)NC(=O)[C@H](CCC(N)=O)NC(=O)[C@H](N)Cc1ccccc1)C(C)C)C(=O)NN(C)C [DPhe6-Bn(6-13)NHN(ME)2] |
| 4100 nM |  | 6 nM | 7 nM | CSCC[C@H](NC(=O)[C@H](Cc1ccccc1)NC(=O)[C@H](Cc1c[nH]cn1)NC(=O)CNC(=O)[C@@H](NC(=O)[C@H](C)NC(=O)[C@H](Cc1c[nH]c2ccccc12)NC(=O)[C@H](CCC(N)=O)NC(=O)[C@@H]1CCC(=O)N1)C(C)C)C(N)=O [CAS_5486808] |
| > 10000 nM |  | 27 nM | > 10000 nM | CC(C)C[C@H](NC(=O)[C@H](Cc1cnc[nH]1)NC(=O)CNC(=O)[C@@H](NC(=O)[C@H](C)NC(=O)[C@H](Cc1c[nH]c2ccccc12)NC(=O)[C@H](CCC(N)=O)NC(=O)[C@H](N)Cc1ccccc1)C(C)C)C(N)=O [DPhe6-Bn(6-13)NH2] |
